Results on 33 compounds are retold here after patent US9873702B2, “Heterocyclic compounds as biogenic amine transport modulators” (Southern Research Institute, priority 2014, dated 2018).

The target of data set [1] is dopamine transporter (DAT) (Rattus norvegicus, UniProt P23977). Description: Dopamine reuptake ([^3H]dopamine uptake) inhibition in rat brain synaptosomes. The conditions noted are these: for IC50: DA Uptake EC50 (nM ± SD), rat caudate synaptosomes, 5 nM [^3H]dopamine, 15 min, 25° C., three experiments pooled; for Emax: read-out: DA Uptake Emax (% I ± SD).
Chain of dopamine transporter (DAT) (P23977 whole entry): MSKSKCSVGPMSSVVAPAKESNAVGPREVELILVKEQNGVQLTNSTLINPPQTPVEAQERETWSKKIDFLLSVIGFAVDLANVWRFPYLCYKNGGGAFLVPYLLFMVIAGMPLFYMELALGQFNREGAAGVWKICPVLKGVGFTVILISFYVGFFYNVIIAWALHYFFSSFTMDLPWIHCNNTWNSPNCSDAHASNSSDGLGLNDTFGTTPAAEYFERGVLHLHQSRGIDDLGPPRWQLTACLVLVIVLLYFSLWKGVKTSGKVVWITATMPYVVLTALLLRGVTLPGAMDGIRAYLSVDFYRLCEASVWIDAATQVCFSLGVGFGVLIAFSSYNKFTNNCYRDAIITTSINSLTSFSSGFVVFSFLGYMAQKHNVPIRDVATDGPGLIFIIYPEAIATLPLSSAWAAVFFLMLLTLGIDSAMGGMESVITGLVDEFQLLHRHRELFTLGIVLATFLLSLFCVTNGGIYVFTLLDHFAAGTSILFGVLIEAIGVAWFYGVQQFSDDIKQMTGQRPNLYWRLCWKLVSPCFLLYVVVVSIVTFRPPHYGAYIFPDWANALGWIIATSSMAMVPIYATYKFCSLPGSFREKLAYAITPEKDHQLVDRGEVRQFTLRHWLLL

As usually defined, the melting point is the temperature of the solid-liquid transition. A word on the IC50: it is the concentration at which inhibition is half-maximal. High values mean weaker potency in that assay, low ones greater potency in that assay. As usually defined, the Emax is the maximal effect, on the per cent scale that the assay sets. In turn, `c1ccc(C(CNc2nc(-c3ccc4cc[nH]c4c3)nc3ccccc23)c2ccccc2)cc1` [compound 31, N-(2,2-Diphenylethyl)-2-(1H-indol-6-yl)Quinazolin-4-Amine] yielded a melting point of 102 °C. Also, in data set [1], the IC50 amounted to 89 ± 23 nM and the Emax was determined as 81 ± 4%.

`c1ccc(CC(CNc2nc(-c3ccc4nccn4c3)nc3ccccc23)c2ccccc2)cc1` (stereo not shown) [compound 136, N-(2,3-Diphenylpropyl)-2-(imidazo[1,2-a]pyridin-6-yl)quinazolin-4-amine] came in with a melting point of 208 to 210 °C. In addition, in data set [1], the midpoint of inhibition, the IC50, lay at 34 ± 4 nM and the Emax was 78 ± 2%.

In the case of `c1ccc(C(CNc2nc(-c3ccc4cn[nH]c4c3)nc3ccccc23)c2ccccc2)cc1` [compound 34, N-(2,2-Diphenylethyl)-2-(1H-Indazol-6-yl)Quinazolin-4-Amine], the melting point was found to be 223 °C. Besides, in data set [1], the IC50 came to 123 ± 20 nM and the Emax amounted to 68 ± 2%.

`c1ccc(C(CNc2nc(-c3cncnc3)nc3ccccc23)c2ccccc2)cc1` [compound 18, N-(2,2-Diphenylethyl)-2-(Pyrimidin-5-yl)Quinazolin-4-Amine] displayed a melting point of 213 to 215 °C. In addition, in data set [1], the IC50 was 160 nM and the Emax is < 100%.

The compound `COc1ccc2nc(-c3ccc4[nH]ccc4c3)nc(NCC(c3ccccc3)c3ccccc3)c2c1` [compound 61, N-(2,2-Diphenylethyl)-2-(1H-Indol-5-yl)-6-Methoxyquinazolin-4-Amine] yielded a melting point of 112 °C. Besides, in data set [1], half-maximal inhibition (IC50) was put at 115 ± 20 nM and the Emax amounted to 80 ± 3%.

`Cn1cc(-c2nc(NCC(c3ccccc3)c3ccccc3)c3ccccc3n2)cn1` [compound 76, N-(2,2-Diphenylethyl)-2-(1-Methyl-1H-Pyrazol-4-yl)Quinazolin-4-Amine] returned a melting point of 211 °C. Moreover, in data set [1], the IC50 came out at 170 nM and the Emax was < 100%.

`c1ccc(C(CNc2nc(-c3ccc4[nH]ncc4c3)nc3ccccc23)c2ccccc2)cc1` [compound 40, N-(2,2-Diphenylethyl)-2-(1H-Indazol-5-yl)Quinazolin-4-Amine] showed a melting point of 191 °C. In data set [1], half-maximal inhibition (IC50) required 124 ± 37 nM and the Emax came to 74 ± 4%.

As for `Cc1cc2nccn2cc1-c1nc(NCC(Oc2ccccc2)c2ccccc2)c2ccccc2n1` (stereo not shown) [compound 177, 2-(7-Methylimidazo[1,2-A]Pyridin-6-yl)-N-(2-Phenoxy-2-Phenylethyl)Quinazolin-4-Amine], the melting point was in the range of 243 to 246 °C. Further, in data set [1], inhibition was half-maximal at 2.3 ± 0.5 nM (IC50) and the Emax worked out at 75 ± 3%.

`c1ccc(C(CNc2nc(-c3cnc4nccn4c3)nc3ccccc23)c2ncccn2)cc1` (stereo not shown) [compound 109, 2-(Imidazo[1,2-A]Pyrimidin-6-yl)-N-(2-Phenyl-2-(Pyrimidin-2-yl)Ethyl)Quinazolin-4-Amine]: the melting point stood at 180 °C. Also, in data set [1], the IC50 was determined as 377 ± 78 nM and the Emax is 57 ± 2%.

As to `c1ccc(C(CNc2nc(-c3ccc4nccn4c3)nc3ccccc23)c2ccc[nH]2)nc1` (stereo not shown) [compound 159, 2-(Imidazo[1,2-A]pyridin-6-yl)-N-(2-(Pyridin-2-yl)-2-(1H-Pyrrol-2-yl)Ethyl)Quinazolin-4-Amine], the melting point lay within 235 to 237 °C.

As for `c1ccc(C(CNc2nc(-n3cncn3)nc3ccccc23)c2ccccc2)cc1` [compound 52, N-(2,2-Diphenylethyl)-2-(1H-1,2,4-Triazol-1-yl)Quinazolin-4-Amine], the melting point is 216 °C. Besides, in data set [1], the IC50 stood at 680 nM and the Emax is 100%.

`c1ccc(C2CN(c3nc(-c4ccc5nccn5c4)nc4ccccc34)Cc3ccccc32)cc1` (stereo not shown) [compound 135, 2-(Imidazo[1,2-A]Pyridin-6-yl)-4-(4-Phenyl-3,4-Dihydroisoquinolin-2(1H)-yl)Quinazoline]: the melting point lay within 107 to 109 °C. Further, in data set [1], the IC50 came to 1490 ± 342 nM and the Emax is 70 ± 4%.

Turning to `CC(=O)N[C@H](CNc1nc(-c2ccc3nccn3c2)nc2ccccc12)c1ccccc1` [compound 149, (S)—N-(2-((2-(Imidazo[1,2-A]Pyridin-6-yl)Quinazolin-4-yl)Amino)-1-Phenylethyl)Acetamide], the melting point lay within 99 to 101 °C. In data set [1], it took 3720 ± 608 nM to reach half-maximal inhibition (IC50) and the Emax came out at 80 ± 4%.

`c1ccc(C(CNc2nc(-c3ccc4ncccc4c3)nc3ccccc23)c2ccccc2)cc1` [compound 50, N-(2,2-Diphenylethyl)-2-(Quinolin-6-yl)Quinazolin-4-Amine] yielded a melting point of 92 °C. Besides, in data set [1], inhibition was half-maximal at 26 ± 7 nM (IC50) and the Emax came out at 68 ± 3%.

For the compound `O=C1Cc2cc(-c3nc(NCC(c4ccccc4)c4ccccc4)c4ccccc4n3)ccc2N1` [compound 78, 5-(4-((2,2-Diphenylethyl)Amino)Quinazolin-2-yl)Indolin-2-One], the melting point stood at 244 °C. In addition, in data set [1], the IC50 was determined as 30 ± 5 nM and the Emax turned out to be 77 ± 2%.

As for `CN1CCN(C(CNc2nc(-c3ccc4nccn4c3)nc3ccccc23)c2ccccc2)CC1` (stereo not shown) [compound 126, 2-(Imidazo[1,2-A]Pyridin-6-yl)-N-(2-(4-Methylpiperazin-1-yl)-2-Phenylethyl)Quinazolin-4-Amine], the melting point is 225 to 227 °C.

`c1ccc(C(Nc2nc(-c3cc4ccccc4s3)nc3ccccc23)c2ccccc2)cc1` [compound 8, N-Benzhydryl-2-(benzo[b]thiophen-2-yl)quinazolin-4-amine]: the melting point lay within 180 to 182 °C.

With `Clc1cccc(C(CNc2nc(-c3cccnc3)nc3ccccc23)c2ccccc2)n1` (stereo not shown) [compound 53, N-(2-(6-Chloropyridin-2-yl)-2-Phenylethyl)-2-(Pyridin-3-yl)Quinazolin-4-Amine], the melting point was determined as 83 °C.

Compound `CC(C)(C)OC(=O)n1cc(-c2nc(NCC(c3ccccc3)c3ccccc3)c3ccccc3n2)c2ccccc21` [compound 72, Tert-Butyl 3-(4-((2,2-Diphenylethyl)Amino)Quinazolin-2-yl)-1H-Indole-1-Carboxylate] displayed a melting point of 90 °C.

As for `O=C(N[C@H](CNc1nc(-c2ccc3nccn3c2)nc2ccccc12)c1ccccc1)c1ccccc1` [compound 150, (S)—N-(2-((2-(Imidazo[1,2-A]Pyridin-6-yl)Quinazolin-4-yl)Amino)-1-Phenylethyl)Benzamide], the melting point was 97 to 99 °C.

Regarding `CC(C)(C)OC(=O)N1CCc2cc(-c3nc(NCC(c4ccccc4)c4ccccc4)c4ccccc4n3)ccc21` [compound 74, Tert-Butyl 5-(4-((2,2-Diphenylethyl)Amino)Quinazolin-2-yl)Indoline-1-Carboxylate], the melting point turned out to be 127 °C.

As to `CN(C)Cc1cnc2ccc(-c3nc(NCC(c4ccccc4)c4ccccc4)c4ccccc4n3)cn12` [compound 112, 2-(3-((Dimethylamino)methyl)Imidazo[1,2-A]pyridin-6-yl)-N-(2,2-Diphenylethyl)Quinazolin-4-Amine], the melting point came to 240 °C.

On to `c1ccc(C(CNc2nc(-c3ccc4nccn4c3)nc3ccccc23)N2CCOCC2)cc1` (stereo not shown) [compound 122, 2-(Imidazo[1,2-A]Pyridin-6-yl)-N-(2-Morpholino-2-Phenylethyl)Quinazolin-4-Amine], for which the melting point was > 250 °C.

Turning to `c1ccc(C(CCNc2nc(-c3cc4ccccc4s3)nc3ccccc23)c2ccccc2)cc1` [compound 19, N-(3,3-Diphenylpropyl)-2-(Benzo [B]Thiophen-2-yl)Quinazolin-4-Amine], the melting point is 201 to 203 °C.

`O=S(=O)(c1ccccc1)n1ccc2cc(-c3nc(NCC(c4ccccc4)c4ccccc4)c4ccccc4n3)ccc21` [compound 36, N-(2,2-Diphenylethyl)-2-(1-(Phenylsulfonyl)-1H-Indol-5-yl)Quinazolin-4-Amine]: the melting point turned out to be 203 °C.

Regarding `Nc1ncc(-c2nc(NCC(c3ccccc3)c3ncccn3)c3ccccc3n2)cn1` (stereo not shown) [compound 104, 2-(2-Aminopyrimidin-5-yl)-N-(2Phenyl-2-(Pyrimidin-2-yl)Ethyl)Quinazolin-4-Amine], the melting point stood at 211 °C.

`FC(F)(F)c1cc2nccn2cc1-c1nc(NCC(c2ccccc2)c2ccccc2)c2ccccc2n1` [compound 200, N-(2,2-Diphenylethyl)-2-(7-(Trifluoromethyl)Imidazo[1,2-a]Pyridin-6-yl)Quinazolin-4-Amine]: in data set [1], half-maximal inhibition (IC50) was put at 2.3 ± 0.3 nM and the Emax stood at 74 ± 2%.

For the compound `c1ccc(C(CNc2nc(-c3c[nH]c4ccccc34)nc3ccccc23)c2ccccc2)cc1` [compound 82, N-(2,2-Diphenylethyl)-2-(1H-Indol-3-yl)Quinazolin-4-Amine], in data set [1], the IC50 worked out at 239 ± 84 nM and the Emax was determined as 93 ± 7%.

In the case of `c1ccc(C(CNc2nc(-c3ccc4nccn4c3)nc3ccccc23)c2ccncc2)cc1` (stereo not shown) [compound 106, 2-(Imidazo[1,2-A]Pyridin-6-yl)-N-(2-Phenyl-2-(Pyridin-4-yl)Ethyl)Quinazolin-4-Amine], in data set [1], it took 11 ± 2 nM to reach half-maximal inhibition (IC50) and the Emax came out at 77 ± 2%.

For `c1ccc(C(CNc2nc(-c3cnc4nccn4c3)nc3ccccc23)N2CCOCC2)cc1` (stereo not shown) [compound 128, 2-(Imidazo[1,2-A]Pyrimidin-6-yl)-N-(2-Morpholino-2-Phenylethyl)Quinazolin-4-Amine], in data set [1], the IC50 is 55 ± 10 nM and the Emax is 69 ± 2%.

Turning to `c1ccc(C(CNc2nc(-c3cccc4cc[nH]c34)nc3ccccc23)c2ccccc2)cc1` [compound 33, N-(2,2-Diphenylethyl)-2-(1H-Indol-7-yl)Quinazolin-4-Amine], the melting point is 67 °C.

For the compound `Cc1cc2nccn2cc1-c1nc(NCC(c2ccc(F)cc2)c2ccc(F)cc2)c2ccccc2n1` [compound 203, N-(2,2-Bis(4-Fluorophenyl)Ethyl)-2-(7-Methylimidazo[1,2-a]Pyridin-6-yl)Quinazolin-4-Amine], in data set [1], inhibition was half-maximal at 1.7 ± 0.2 nM (IC50) and the Emax was 72 ± 1%.

For the compound `c1ccc(C(CNc2nc(-c3cnc4ccnn4c3)nc3ccccc23)c2ccccc2)cc1` [compound 199, N-(2,2-Diphenylethyl)-2-(Pyrazolo[1,5-a]Pyrimidin-6-yl)Quinazolin-4-Amine], in data set [1], half-maximal inhibition (IC50) required 9.1 ± 2.1 nM and the Emax was determined as 73 ± 3%.
